“Also recorded” adds a separate entry of the source. Where a SMILES comes first, the peptide text is derived from it. The star is where a group is joined. Cbz = O=C(OCc1ccccc1)*
Key:
[1] = tested on: avian influenza A virus A/FPV/Bratislava/79; type: cell-based, human lung epithelium cell line A549
[2] = tested on: TRAIL and FasL/CD95L; type: cell-based, human
[3] = tested on: avian influenza A virus A/FPV/Bratislava/79; design: species or system C57B1/6 mice; conditions: mouse, in vivo
[4] = tested on: IκBα; experiment: TNFα-induced IκBα degradation (NF-κB activation), Western blot, HEK293 cells; type: cell-based; conditions: 1 h pre-incubation, 15 min TNFα
[5] = tested on: avian influenza virus A/FPV/Bratislava/79 (H7N7); type: cell-based, human A549 lung epithelium carcinoma cells
[6] = after intravenous application; cited from earlier work
[7] = tested on: IκBα; experiment: TNFα-induced IκBα degradation (NF-κB activation), Western blot, A549 cells; type: cell-based, human; conditions: 1 h pre-incubation, 15 min TNFα
[8] = tested on: 26S proteasome; conditions: cited from earlier work

Structure (SMILES): CC(C)C[C@@H](C=O)NC(=O)[C@H](CC(C)C)NC(=O)[C@H](CC(C)C)NC(=O)OCc1ccccc1 [MG132, N-carbobenzoxy-L-leucinyl-L-leucinyl-L-leucinal] (Cbz-Leu-Leu-Leu-aldehyde)
- influenza virus replication [1]: blocks
- reduction of the virus titre [1]: up to 10 times
- virus-induced expression of FasL [2]: clearly reduced; also recorded: blocks
- virus-induced expression of TRAIL [2]: clearly reduced; also recorded: blocks
- survival rate of infected mice versus untreated controls [3]: significantly increased

Structure (SMILES): CC(C)C[C@H](NC(=O)[C@H](Cc1ccccc1)NC(=O)c1cnccn1)B(O)O [PS341, pyranosyl-phenyl-leucinyl-boric acid]
- prevention of TNFα-induced IκBα-degradation ([4]; 100 nM): not in a position to prevent
- reduction of the virus titre [5]: over 2 logarithmic levels
- biological availability [6]: biologically available
- prevention of TNFα-induced IκBα-degradation ([7]; 100 nM): not in a position to prevent

Structure (SMILES): CC(C)c1nc(CN(C)C(=O)N[C@H](C(=O)N[C@@H](Cc2ccccc2)C[C@H](O)[C@H](Cc2ccccc2)NC(=O)OCc2cncs2)C(C)C)cs1 [Ritonavir]
- concentration with unspecific effect on the proteasome [8]: approx. 10 micrograms

Structure (SMILES): CC(=O)N[C@@H](CSC(=O)[C@]1([C@@H](O)C(C)C)NC(=O)[C@H](C)[C@@H]1O)C(=O)O [lactacysteine]
- blocking of TNFα-induced IκBα-degradation ([4]; 1 μM): not effective enough to block
- reduction of the virus titre [5]: reduction
- blocking of TNFα-induced IκBα-degradation ([7]; 1 μM): not effective enough to block
